This test deals with HBV rcDNA in HepDE19 cells. The experiment in a line: HepDE19 assay with bDNA quantitation of HBV rcDNA. In kind it is cell-based, hepatitis B virus (HBV).
Where [1] appears, read: HepDE19 cells, inhibition of rcDNA formation, 7 day incubation, top concentration 25 μM, read-out: DE-19 bDNA EC50.
Setting [2] is: Hepatitis B virus, HepDE19, 168 h, HepDE19 cells, inhibition of rcDNA formation, 7 day incubation, top concentration 25 μM, read-out: DE-19 bDNA EC50.
Where [3] appears, read: Hepatitis B virus, HepDE19, 168 h, read-out: DE-19 bDNA EC50 (μM), HepDE19 cells, inhibition of rcDNA formation, 7 day incubation, top concentration 25 μM.
The mark [4] stands for this setting: read-out: DE-19 bDNA EC50, HepDE19 cells, inhibition of rcDNA formation, 7 day incubation, top concentration 25 μM.

Where a name gives a salt, the structure may show the parent alone. Read-outs that look alike come from different tables or passages of the source.

Regarding `COC(=O)NC1c2c(F)ccc(C(=O)Nc3ccc(F)c(Cl)c3)c2CC1(C)C` (stereo not drawn) [Compound 121, O-Methyl, N-(4-((3-chloro-4-fluorophenyl)carbamoyl)-7-fluoro-2,2-dimethyl-2,3-dihydro-1H-inden-1-yl) carbamate], the EC50 under setting [1] is over 25 µM.

Turning to `COC(=O)NC1c2c(F)ccc(C(=O)Nc3ccc(F)c(Cl)c3)c2CC1(C)C` (stereo not drawn) [Compound 122, O-Methyl, N-(4-((3-chloro-4-fluorophenyl)carbamoyl)-7-fluoro-2,2-dimethyl-2,3-dihydro-1H-inden-1-yl) carbamate], under setting [1], the EC50 was 0.47 µM.

For the molecule `COC(=O)O[C@H]1CCc2c(C(=O)Nc3ccc(F)c(Cl)c3)ccc(F)c21` [Compound 123, (S)-4-(3-Chloro-4-fluorophenylcarbamoyl)-7-fluoro-2,3-dihydro-1H-inden-1-yl Methyl Carbonate], the EC50 under setting [2] worked out at 0.76 µM.

Take `O=C(N[C@H]1CCc2c(C(=O)Nc3ccc(F)c(Cl)c3)ccc(F)c21)OCc1cscn1` [Compound 124, O-Thiazol-4-ylmethyl, N—(S)-(4-((3-chloro-4-fluorophenyl)carbamoyl)-7-fluoro-2,3-dihydro-1H-inden-1-yl) carbamate]: under setting [2], the EC50 amounted to 0.06 µM.

As for `O=C(N[C@H]1CCc2c(C(=O)Nc3ccc(F)c(Cl)c3)ccc(F)c21)OCCCn1ccnc1` [Compound 125, O-3-(1H-Imidazol-1-yl)propyl, N—(S)-(4-((3-chloro-4-fluorophenyl)carbamoyl)-7-fluoro-2,3-dihydro-1H-inden-1-yl) carbamate Hydrochloride], the EC50 under setting [3] worked out at 0.28 µM.

Consider `N#Cc1cc(NC(=O)c2ccc(F)c3c2CC[C@@H]3NC(=O)OCc2ccccn2)ccc1F` [Compound 126, O-Pyridin-2-ylmethyl, N—(S)-(4-((3-cyano-4-fluorophenyl)carbamoyl)-7-fluoro-2,3-dihydro-1H-inden-1-yl)carbamate Hydrochloride], for which the EC50 under setting [3] was 0.24 µM.

As to `O=C(N[C@H]1CCc2c(C(=O)Nc3ccc(F)c(Cl)c3)ccc(F)c21)c1nccs1` [Compound 127, (S)—N-(4-((3-Chloro-4-fluorophenyl)carbamoyl)-7-fluoro-2,3-dihydro-1H-inden-1-yl)thiazole-2-carboxamide], the EC50 under setting [2] is 0.36 µM.

For `O=C(Nc1ccc(F)c(Cl)c1)c1ccc(F)c2c1CC[C@@H]2NS(=O)(=O)C1CC1` [Compound 128, (S)—N-(3-Chloro-4-fluorophenyl)-1-(cyclopropanesulfonamido)-7-fluoro-2,3-dihydro-1H-indene-4-carboxamide], under setting [2], the EC50 was 0.04 µM.

Take `O=C(N[C@H]1CCc2c(C(=O)Nc3ccc(F)c(Cl)c3)ccc(F)c21)c1cnco1` [Compound 129, (S)—N-(4-((3-Chloro-4-fluorophenyl)carbamoyl)-7-fluoro-2,3-dihydro-1H-inden-1-yl)oxazole-5-carboxamide]: under setting [2], the EC50 came to 0.41 µM.

Regarding `COC(=O)N[C@@H]1c2cccc(C(=O)Nc3ccc(F)c(Cl)c3)c2C[C@H]1OC` [Compound 130, O-Methyl, N-((1R,2R)-4-((3-chloro-4-fluorophenyl)carbamoyl)-2-methoxy-2,3-dihydro-1H-inden-1-yl)carbamate], the EC50 under setting [3] came out at 0.1 µM.

Turning to `O=C(N[C@H]1CCc2c(C(=O)Nc3ccc(F)c(Cl)c3)ccc(F)c21)OC1CCCC1` [Compound 131, O-Cyclopentyl, N—(S)-(4-((3-chloro-4-fluorophenyl)carbamoyl)-7-fluoro-2,3-dihydro-1H-inden-1-yl)carbamate], under setting [2], the EC50 is 0.59 µM.

Consider `O=C(N[C@H]1CCc2c(C(=O)Nc3ccc(F)c(Cl)c3)ccc(F)c21)OCC1CNC(=O)O1` (stereo partly drawn) [Compound 132, O-(2-Oxooxazolidin-5-yl)methyl, N—((S)-4-((3-chloro-4-fluorophenyl)carbamoyl)-7-fluoro-2,3-dihydro-1H-inden-1-yl) carbamate], for which the EC50 under setting [3] was found to be 0.22 µM.

As to `O=C(N[C@H]1CCc2c(C(=O)Nc3ccc(F)c(Cl)c3)ccc(F)c21)OCCn1cccn1` [Compound 133, O-2-(1H-Pyrazol-1-yl)ethyl, N—(S)-(4-((3-chloro-4-fluorophenyl)carbamoyl)-7-fluoro-2,3-dihydro-1H-inden-1-yl) carbamate], the EC50 under setting [3] worked out at 0.15 µM.

For the molecule `CC1(C)Cc2c(C(=O)Nc3ccc(F)c(Cl)c3)ccc(F)c2C1NC(=O)OCc1ccccn1` (stereo not drawn) [Compound 135, O-Pyridin-2-ylmethyl, N-(4-((3-chloro-4-fluorophenyl)carbamoyl)-7-fluoro-2,2-dimethyl-2,3-dihydro-1H-inden-1-yl) carbamate], the EC50 under setting [4] came out at 8.4 µM.

For `CC1(C)Cc2c(C(=O)Nc3ccc(F)c(Cl)c3)ccc(F)c2C1NC(=O)OCc1ccccn1` (stereo not drawn) [Compound 136, O-Pyridin-2-ylmethyl, N-(4-((3-chloro-4-fluorophenyl)carbamoyl)-7-fluoro-2,2-dimethyl-2,3-dihydro-1H-inden-1-yl) carbamate], the EC50 under setting [4] was found to be 0.29 µM.

Take `Cn1ccnc1COC(=O)N[C@H]1CCc2c(C(=O)Nc3ccc(F)c(Cl)c3)ccc(F)c21` [Compound 137, O-(1-Methyl-1H-imidazol-2-yl)methyl, N—(S)-(4-((3-chloro-4-fluorophenyl)carbamoyl)-7-fluoro-2,3-dihydro-1H-inden-1-yl) carbamate]: the EC50 under setting [2] was found to be 0.1 µM.

With `O=C(N[C@H]1CCc2c(C(=O)Nc3ccc(F)c(Cl)c3)ccc(F)c21)OCc1ncccc1F` [Compound 138, O-(3-Fluoropyridin-2-yl)methyl, N—(S)-(4-((3-chloro-4-fluorophenyl)carbamoyl)-7-fluoro-2,3-dihydro-1H-inden-1-yl) carbamate], under setting [3], the EC50 is 0.16 µM.

As for `O=C(N[C@H]1CCc2c(C(=O)Nc3ccc(F)c(Cl)c3)ccc(F)c21)OC[C@H]1COCCN1` [Compound 139, O—((R)-Morpholin-3-yl)methyl, N—((S)-4-((3-chloro-4-fluorophenyl)carbamoyl)-7-fluoro-2,3-dihydro-1H-inden-1-yl) carbamate Hydrochloride], the EC50 under setting [3] came out at 0.62 µM.

As to `COc1ccnc(COC(=O)N[C@H]2CCc3c(C(=O)Nc4ccc(F)c(Cl)c4)ccc(F)c32)c1` [Compound 140, O-(4-Methoxypyridin-2-yl)methyl, N—(S)-(4-((3-chloro-4-fluorophenyl)carbamoyl)-7-fluoro-2,3-dihydro-1H-inden-1-yl) carbamate], the EC50 under setting [3] turned out to be 0.22 µM.

For `O=C(N[C@H]1CCc2c(C(=O)Nc3ccc(F)c(Cl)c3)ccc(F)c21)OCCO` [Compound 141, O-2-Hydroxyethyl, N—(S)-(4-((3-chloro-4-fluorophenyl)carbamoyl)-7-fluoro-2,3-dihydro-1H-inden-1-yl) carbamate], the EC50 under setting [2] amounted to 0.18 µM.

As for `O=C(N[C@H]1CCc2c(C(=O)Nc3ccc(F)c(Cl)c3)ccc(F)c21)OC[C@@H]1CCCO1` [Compound 142, O—((S)-Tetrahydrofuran-2-yl)methyl, N—((S)-4-((3-chloro-4-fluorophenyl)carbamoyl)-7-fluoro-2,3-dihydro-1H-inden-1-yl) carbamate], under setting [3], the EC50 is 0.27 µM.

Consider `O=C(CO)N[C@H]1CCc2c(C(=O)Nc3ccc(F)c(Cl)c3)ccc(F)c21` [Compound 143, (S)—N-(3-Chloro-4-fluorophenyl)-7-fluoro-1-(2-hydroxyacetamido)-2,3-dihydro-1H-indene-4-carboxamide], for which the EC50 under setting [2] amounted to 1.5 µM.

`O=C(Nc1cccnc1)N[C@H]1CCc2c(C(=O)Nc3ccc(F)c(Cl)c3)ccc(F)c21` [Compound 144, (S)—N-(3-Chloro-4-fluorophenyl)-7-fluoro-1-(3-(pyridin-3-yl)ureido)-2,3-dihydro-1H-indene-4-carboxamide]: the EC50 under setting [3] was determined as 0.85 µM.

Turning to `O=C(Nc1ccncc1)N[C@H]1CCc2c(C(=O)Nc3ccc(F)c(Cl)c3)ccc(F)c21` [Compound 145, (S)—N-(3-Chloro-4-fluorophenyl)-7-fluoro-1-(3-(pyridin-4-yl)ureido)-2,3-dihydro-1H-indene-4-carboxamide], the EC50 under setting [3] came to 0.93 µM.

On to `O=C(Nc1ccc(F)c(Cl)c1)c1ccc(F)c2c1CC[C@@H]2Nc1nccs1` [Compound 146, (S)—N-(3-Chloro-4-fluorophenyl)-7-fluoro-1-(thiazol-2-ylamino)-2,3-dihydro-1H-indene-4-carboxamide], for which, under setting [3], the EC50 turned out to be 0.24 µM.

Consider `O=C(N[C@H]1CCc2c(C(=O)Nc3ccc(F)c(Cl)c3)ccc(F)c21)OCCN1CCCCC1` [Compound 147, O-2-(Piperidin-1-yl)ethyl, N—(S)-(4-((3-chloro-4-fluorophenyl)carbamoyl)-7-fluoro-2,3-dihydro-1H-inden-1-yl) carbamate], for which, under setting [3], the EC50 came out at 1.1 µM.

With `O=C(N[C@H]1CCc2c(C(=O)Nc3ccc(F)c(C(F)F)c3)ccc(F)c21)OCc1ccccn1` [Compound 148, O-Pyridin-2-ylmethyl, N—(S)-(4-((3-(difluoromethyl)-4-fluorophenyl)carbamoyl)-7-fluoro-2,3-dihydro-1H-inden-1-yl)carbamate Hydrochloride], the EC50 under setting [3] is 0.12 µM.

Take `O=C(NCc1ccccn1)N[C@H]1CCc2c(C(=O)Nc3ccc(F)c(Cl)c3)ccc(F)c21` [Compound 149, (S)—N-(3-chloro-4-fluorophenyl)-7-fluoro-1-(3-(pyridin-2-ylmethyl)ureido)-2,3-dihydro-1H-indene-4-carboxamide Hydrochloride]: the EC50 under setting [3] came to 0.21 µM.

As for `N#Cc1cccc(COC(=O)N[C@H]2CCc3c(C(=O)Nc4ccc(F)c(Cl)c4)ccc(F)c32)n1` [Compound 150, O-(6-Cyanopyridin-2-yl)methyl, N—(S)-(4-((3-chloro-4-fluorophenyl)carbamoyl)-7-fluoro-2,3-dihydro-1H-inden-1-yl)carbamate], the EC50 under setting [2] turned out to be 0.15 µM.

`O=C(N[C@H]1CCc2c(C(=O)Nc3ccc(F)c(Cl)c3)ccc(F)c21)OCc1ccc2ccccc2n1` [Compound 151, O-Quinolin-2-ylmethyl, N—(S)-(4-((3-chloro-4-fluorophenyl)carbamoyl)-7-fluoro-2,3-dihydro-1H-inden-1-yl) carbamate]: the EC50 under setting [3] came to 0.41 µM.

For the origin of these results see patent US11098010B2 (priority 2017, dated 2021).
